Source: PMC11249012 (Journal of Medicinal Chemistry, 2024)

Biological target: T1, HDAC10 (Homo sapiens, UniProt Q969S8)
T1 sequence (Q969S8 1-669): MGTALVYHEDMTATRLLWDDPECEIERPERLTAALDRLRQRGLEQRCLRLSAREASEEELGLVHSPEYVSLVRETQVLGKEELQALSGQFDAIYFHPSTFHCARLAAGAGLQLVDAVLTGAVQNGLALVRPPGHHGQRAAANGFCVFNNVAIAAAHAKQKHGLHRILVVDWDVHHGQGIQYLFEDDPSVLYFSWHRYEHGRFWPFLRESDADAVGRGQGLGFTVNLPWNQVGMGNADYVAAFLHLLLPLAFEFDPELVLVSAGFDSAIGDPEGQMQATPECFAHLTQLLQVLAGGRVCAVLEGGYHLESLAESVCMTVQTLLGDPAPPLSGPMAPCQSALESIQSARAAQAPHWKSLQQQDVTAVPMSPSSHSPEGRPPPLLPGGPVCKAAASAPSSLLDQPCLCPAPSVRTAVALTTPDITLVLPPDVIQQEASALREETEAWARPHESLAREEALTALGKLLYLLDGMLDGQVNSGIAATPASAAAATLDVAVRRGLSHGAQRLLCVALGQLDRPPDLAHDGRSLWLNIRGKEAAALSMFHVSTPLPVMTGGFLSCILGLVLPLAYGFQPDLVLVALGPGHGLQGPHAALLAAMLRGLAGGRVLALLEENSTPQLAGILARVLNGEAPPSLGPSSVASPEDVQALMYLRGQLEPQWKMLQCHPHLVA
Assay: Biochemical assay for HDAC inhibition, HDAC10
Conditions: read-out: IC50 HDAC10; Table 1, purified enzyme; unit inferred

IC50: 6.75 nM
Compound: Cn1cc(CNCC2CCN(c3ncc(C(=O)NO)cn3)CC2)c2ccccc21 [quisinostat]
